IC50 data for 26 compounds are collected here from patent US10730889B2, “Amido spirocyclic amide and sulfonamide derivatives” (Forma TM, LLC, priority 2012, dated 2020).

Molecules are shown by their SMILES.

Chain of NAMPT (P43490 whole entry): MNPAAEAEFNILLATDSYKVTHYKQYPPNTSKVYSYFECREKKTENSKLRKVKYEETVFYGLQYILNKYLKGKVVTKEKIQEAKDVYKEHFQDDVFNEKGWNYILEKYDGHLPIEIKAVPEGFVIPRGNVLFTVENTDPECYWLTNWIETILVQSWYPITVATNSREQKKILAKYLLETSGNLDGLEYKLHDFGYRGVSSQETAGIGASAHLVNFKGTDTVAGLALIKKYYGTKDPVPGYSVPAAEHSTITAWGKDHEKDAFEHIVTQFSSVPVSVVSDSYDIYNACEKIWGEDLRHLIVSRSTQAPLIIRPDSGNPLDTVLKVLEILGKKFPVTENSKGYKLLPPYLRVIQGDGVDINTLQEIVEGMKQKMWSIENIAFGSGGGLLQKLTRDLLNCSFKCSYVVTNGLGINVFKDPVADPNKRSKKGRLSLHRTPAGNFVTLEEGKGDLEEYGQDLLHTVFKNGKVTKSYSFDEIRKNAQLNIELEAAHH

One experiment has as its target NAMPT (Homo sapiens (Human), UniProt P43490). The experiment in a line: Biochemical inhibition assay (NAMPT enzymatic reaction, NMN quantified by mass spectrometry).
Conditions: not given
With `CC(C)(C)OC(=O)N1CCC2(CC1)CC2CNC(=O)c1cnn2nccc2c1` (stereo not shown) [Example 383, tert-Butyl 2-[(pyrazolo[1,5-b]pyridazine-5-carbonylamino)methyl]-6-azaspiro[2.5]octane-6-carboxylate], the IC50 is 15.8 nM.

For `Cn1nc(C(=O)N2CCC3(CC2)CC3CNC(=O)c2cc3ccncc3o2)cc1C(F)(F)F` (stereo not shown) [Example 131, N-[[6-[1-methyl-5-(trifluoromethyl]pyrazole-3-carbonyl]-6-azaspiro[2.5]octan-2-yl]methyl]furo[2,3-c]pyridine-2-carboxamide], the IC50 was 356 nM.

For the next experiment, the system named is A2780 cells. As to the kind of experiment: In-vitro cell proliferation assay (SRB, 72 hours). The following applies: Homo sapiens, A2780, 72 h, A2780 cells, 72 hours, SRB; read-out: Cell Proliferation (IC50). The format is cell-based.
Turning to `CC(C)(C)OC(=O)N1CCC2(CC1)CC2CNC(=O)c1cnn2nccc2c1` (stereo not shown) [Example 383, tert-Butyl 2-[(pyrazolo[1,5-b]pyridazine-5-carbonylamino)methyl]-6-azaspiro[2.5]octane-6-carboxylate], the IC50 is 2000 nM.

Regarding `Cn1nc(C(=O)N2CCC3(CC2)CC3CNC(=O)c2cc3ccncc3o2)cc1C(F)(F)F` (stereo not shown) [Example 131, N-[[6-[1-methyl-5-(trifluoromethyl]pyrazole-3-carbonyl]-6-azaspiro[2.5]octan-2-yl]methyl]furo[2,3-c]pyridine-2-carboxamide], the IC50 was 326 nM.

For the compound `CC(C)(CO)OC(=O)N1CCC2(CC1)CC2CNC(=O)c1cc2ccncc2o1` (stereo not shown) [Example 215, (2-hydroxy-1,1-dimethyl-ethyl) 2-[(furo[2,3-c]pyridine-2-carbonylamino)methyl]-6-azaspiro[2.5]octane-6-carboxylate], the IC50 is 65.8 nM.

`O=C(NCC1CC12CCN(C(=O)c1cnc3ccccc3n1)CC2)c1cc2ccncc2o1` (stereo not shown) [Example 269]: the IC50 was found to be 16 nM.

As to `O=C(NCC1CC12CCN(C(=O)c1ccnc3[nH]ccc13)CC2)c1cc2ccncc2o1` (stereo not shown) [Example 239, N-[[6-(1H-pyrrolo[2,3-b]pyridine-4-carbonyl)-6-azaspiro[2.5]octan-2-yl]methyl]furo[2,3-c]pyridine-2-carboxamide], the IC50 is 29.7 nM.

Regarding `CN1CCC(CC(=O)N2CCC3(CC2)CC3CNC(=O)c2cc3ccncc3o2)CC1` (stereo not shown) [Example 149, N-[(6-[2-(1-methyl-4-piperidyl)acetyl]-6-azaspiro[2.5]octan-2-yl]methyl]furo[2,3-c]pyridine-2-carboxamide], the IC50 was found to be 496 nM.

On to `NS(=O)(=O)c1ccc(C(=O)N2CCC3(CC2)CC3CNC(=O)c2cc3ccncc3o2)cc1` (stereo not shown) [Example 259, N-[[6-(4-sulfamoylbenzoyl)-6-azaspiro[2.5]octan-2-yl]methyl]furo[2,3-c]pyridine-2-carboxamide], for which the IC50 was found to be 1200 nM.

Take `CC(C)N1CCC(n2cc(C(=O)N3CCC4(CC3)CC4CNC(=O)c3cc4ccncc4o3)cn2)C1` (stereo not shown) [Example 303, N-[[6-(1-(1-isopropylpyrrolidin-3-yl)pyrazole-4-carbonyl]-6-azaspiro[2.5]octan-2-yl]methyl]furo[2,3-c]pyridine-2-carboxamide]: the IC50 is 2000 nM.

Consider `CCc1noc(C)c1C(=O)N1CCC2(CC1)CC2CNC(=O)c1cc2ccncc2o1` (stereo not shown) [Example 136, N-[[6-(3-ethyl-5-methyl-isoxazole-4-carbonyl)-6-azaspiro[2.5]octan-2-yl)methyl]furo[2,3-c]pyridine-2-carboxamide], for which the IC50 was found to be 169 nM.

As to `CC(C)Cc1cc(C(=O)N2CCC3(CC2)CC3CNC(=O)c2cc3ccncc3o2)[nH]n1` (stereo not shown) [Example 319, N-[[6-(3-isobutyl-1H-pyrazole-5-carbonyl)-6-azaspiro[2.5]octan-2-yl]methyl]furo[2,3-c]pyridine-2-carboxamide], the IC50 worked out at 55 nM.

As for `O=C(NCC1CC12CCN(C(=O)c1ccc3cccnc3n1)CC2)c1cc2ccncc2o1` (stereo not shown) [Example 271, N-[[6-(1,8-naphthyridine-2-carbonyl)-6-azaspiro[2.5]octan-2-yl]methyl]furo[2,3-c]pyridine-2-carboxamide], the IC50 worked out at 139 nM.

With `O=C(NCC1CC12CCN(C(=O)Cn1ccnc1)CC2)c1cc2ccncc2o1` (stereo not shown) [Example 26, N-[[6-(2-imidazol-1-ylacetyl)-6-azaspiro[2.5]octan-2-yl]methyl]furo[2,3-c]pyridine-2-carboxamide], the IC50 turned out to be 2000 nM.

Take `O=C(NCC1CC12CCN(C(=O)C(F)(F)c1ccccc1)CC2)N1Cc2ccncc2C1` (stereo not shown) [Example 230, N-[[6-(2,2-difluoro-2-phenyl-acetyl)-6-azaspiro[2.5]octan-2-yl]methyl]-1,3-dihydropyrrolo[3,4-c]pyridine-2-carboxamide]: the IC50 amounted to 29.9 nM.

In the case of `CC(C)(C)OC(=O)N1CCC2(CC1)CC(CNC(=O)c1cc3cnccc3[nH]1)C2` [Example 193, tert-butyl 2-[(1H-pyrrolo[3,2-c]pyridine-2-carbonylamino)methyl]-7-azaspiro[3.5]nonane-7-carboxylate], the IC50 was determined as 2000 nM.

As to `CC(C)(C)OC(=O)N1CCC2(CC1)CC(CNC(=O)N1Cc3ccncc3C1)C2` [Example 200, tert-butyl 2-[(1,3-dihydropyrrolo[3,4-c]pyridine-2-carbonylamino)methyl]-7-azaspiro[3.5]nonane-7-carboxylate], the IC50 came out at 24.7 nM.

Regarding `CC(=O)Nc1cc(C(=O)N2CCC3(CC2)CC3CNC(=O)c2cc3ccncc3o2)ccn1` (stereo not shown) [Example 133, N-[[6-(2-acetamidopyridine-4-carbonyl)-6-azaspiro[2.5]octan-2-yl]methyl]furo[2,3-c]pyridine-2-carboxamide], the IC50 was 696 nM.

For the compound `O=C(NCC1CC12CCN(C(=O)c1cccc3[nH]cnc13)CC2)c1cc2ccncc2o1` (stereo not shown) [Example 236, N-[[6-(1H-benzimidazole-4-carbonyl)-6-azaspiro[2.5]octan-2-yl]methyl]furo[2,3-c]pyridine-2-carboxamide], the IC50 amounted to 47.3 nM.

Turning to `O=C(NCC1CC12CCN(C(=O)NCc1ccc(Cl)cc1)CC2)c1cc2ccncc2o1` (stereo not shown) [Example 170, N-[[6-[(4-chlorophenyl)methylcarbamoyl]-6-azaspiro[2.5]octan-2-yl]methyl]furo[2,3-c]pyridine-2-carboxamide], the IC50 came out at 2000 nM.

`O=C(NCC1CC12CCN(C(=O)c1cc(C3CC3)on1)CC2)c1cc2ccncc2o1` (stereo not shown) [Example 327, N-[[6-(5-cyclopropylisoxazole-3-carbonyl)-6-azaspiro[2.5]octan-2-yl]methyl]furo[2,3-c]pyridine-2-carboxamide]: the IC50 is 77.6 nM.

As for `O=C(NCC1CC12CCN(C(=O)c1ccccc1Cn1ccnc1)CC2)c1cc2ccncc2o1` (stereo not shown) [Example 260, N-[[6-(2-(imidazol-1-ylmethyl)benzoyl]-6-azaspito[2.5]octan-2-yl]methyl]furo[2,3-c]pyridine-2-carboxamide], the IC50 stood at 2000 nM.

`Cn1ccc(C(=O)N2CCC3(CC2)CC3CNC(=O)c2cc3ccncc3o2)n1` (stereo not shown) [Example 109, N-[[6-(1-methylpyrazole-3-carbonyl)-6-azaspiro[2.5]octan-2-yl]methyl]furo[2,3-c]pyridine-2-carboxamide]: the IC50 was 299 nM.

For `Cn1cc(C(=O)N2CCC3(CC2)CC3CNC(=O)N2Cc3ccncc3C2)cn1` (stereo not shown) [Example 221, N-[[6-(1-methylpyrazole-4-carbonyl)-6-azaspiro[2.5]octan-2-yl]methyl]-1,3-dihydropyrrolo[3,4-c]pyridine-2-carboxamide], the IC50 was found to be 25.4 nM.

In the case of `O=C(NCC1CC12CCN(C(=O)CC1CCS(=O)(=O)C1)CC2)c1cc2ccncc2o1` (stereo not shown) [Example 80, N-[[6-[2-(1,1-dioxothiolan-3-yl)acetyl]-6-azaspiro[2.5]octan-2-yl]methyl]furo[2,3-c]pyridine-2-carboxamide], the IC50 was 1340 nM.

Take `CC(C)N1CCC(CC(=O)N2CCC3(CC2)CC3CNC(=O)N2Cc3ccncc3C2)CC1` (stereo not shown) [Example 188, N-[[6-[2-(1-isopropyl-4-piperidyl)acetyl]-6-azaspiro[2.5]octan-2-yl]methyl]-1,3-dihydropyrrolo[3,4-c]pyridine-2-carboxamide]: the IC50 was 45.3 nM.

Take `O=C(NCC1CC12CCN(C(=O)c1ccc3nonc3c1)CC2)c1cc2ccncc2o1` (stereo not shown) [Example 266, N-[[6-(2,1,3-benzoxadiazole-5-carbonyl)-6-azaspiro[2.5]octan-2-yl]methyl]furo[2,3-c]pyridine-2-carboxamide]: the IC50 was determined as 1470 nM.

As to `CN1CCN(Cc2cccc(C(=O)N3CCC4(CC3)CC4CNC(=O)c3cc4cnccc4[nH]3)c2)CC1` (stereo not shown) [Example 344, N-[[6-[3-[(4-methylpiperazin-1-yl)methyl]benzoyl]-6-azaspiro[2.5]octan-2-yl]methyl]-1H-pyrrolo[3,2-c]pyridine-2-carboxamide], the IC50 turned out to be 72 nM.
